In test [1] the target is Ba/F3 ERBB2 A775_G776insYVMA (Homo sapiens, UniProt P04626, DUP772-775, cells depend on it). In words: Cell viability assay, Ba/F3 ERBB2 A775_G776insYVMA. Format: cell-based, mouse. The following applies: Ba/F3 ERBB2 YVMA cells, cell viability, 72 hours, CellTiter Glo; Table B5; read-out: Ba/F3 ERBB2 YVMA, IC50. A digest of the protocol:
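Viability after 72 h compound treatment (37 °C, 5% CO2) was quantified by CellTiter-Glo luminescence of intracellular ATP, with sigmoidal dose-response fitting. Cells were retrovirally engineered Ba/F3 lines whose growth depends on the mutant human ERBB2 in place of IL-3, plated at 3000 per well.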
For orientation: ATP-based viability assays read luminescence as a measure of living cells.

The target of test [2] is T1, phosphorylated ERBB2 (pERBB2) (Homo sapiens, UniProt P04626).
T1 construct: endogenous in cells; host or cells: BT-474
T1 sequence (P04626 23-1255): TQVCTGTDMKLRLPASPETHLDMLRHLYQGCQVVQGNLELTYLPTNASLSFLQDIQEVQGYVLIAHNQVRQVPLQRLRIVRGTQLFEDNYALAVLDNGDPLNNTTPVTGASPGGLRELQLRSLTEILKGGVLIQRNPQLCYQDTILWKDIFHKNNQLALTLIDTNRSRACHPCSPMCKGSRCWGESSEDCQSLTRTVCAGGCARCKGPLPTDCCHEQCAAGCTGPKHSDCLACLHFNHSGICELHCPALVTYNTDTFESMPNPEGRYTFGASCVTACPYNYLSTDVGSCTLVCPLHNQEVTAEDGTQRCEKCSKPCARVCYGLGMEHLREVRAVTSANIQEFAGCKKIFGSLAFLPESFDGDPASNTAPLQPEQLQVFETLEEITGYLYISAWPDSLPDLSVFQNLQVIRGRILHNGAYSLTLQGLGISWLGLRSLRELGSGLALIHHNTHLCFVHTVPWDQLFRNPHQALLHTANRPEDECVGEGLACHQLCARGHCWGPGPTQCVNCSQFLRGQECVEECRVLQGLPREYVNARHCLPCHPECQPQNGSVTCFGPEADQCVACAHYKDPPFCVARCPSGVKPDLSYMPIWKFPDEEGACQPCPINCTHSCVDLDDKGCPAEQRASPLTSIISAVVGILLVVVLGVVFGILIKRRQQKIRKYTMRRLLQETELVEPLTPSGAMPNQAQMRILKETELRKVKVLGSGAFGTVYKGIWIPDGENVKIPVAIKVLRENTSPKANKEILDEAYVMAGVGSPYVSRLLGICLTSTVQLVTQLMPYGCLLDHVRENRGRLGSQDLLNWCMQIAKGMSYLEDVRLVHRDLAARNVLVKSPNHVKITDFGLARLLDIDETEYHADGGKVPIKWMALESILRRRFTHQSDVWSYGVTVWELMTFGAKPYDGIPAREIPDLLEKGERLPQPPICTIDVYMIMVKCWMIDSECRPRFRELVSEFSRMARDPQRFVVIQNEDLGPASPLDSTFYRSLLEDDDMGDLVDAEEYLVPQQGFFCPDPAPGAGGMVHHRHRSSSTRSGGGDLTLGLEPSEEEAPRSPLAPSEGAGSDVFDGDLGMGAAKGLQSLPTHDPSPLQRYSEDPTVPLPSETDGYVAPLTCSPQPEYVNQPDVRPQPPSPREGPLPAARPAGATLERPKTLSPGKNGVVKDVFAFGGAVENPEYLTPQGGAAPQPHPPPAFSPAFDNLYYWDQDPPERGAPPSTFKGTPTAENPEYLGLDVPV
In words: Detection of phosphorylated ERBB2 (pERBB2) by ELISA in BT-474 cells. It counts as cell-based. The following applies: four hours incubation. The essentials:
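Phospho-ERBB2 in lysates was quantified by sandwich ELISA (A450, TMB) after 4 h compound exposure at 37 °C of BT-474 cells seeded at 2.0×10^4 per well. Compounds tested at 10 µM to 0.01 nM final in four-fold steps; activity normalized to DMSO (0.1%) high and cell-free low controls.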

In test [3] the target is T2, phosphorylated EGFR (pEGFR) (Homo sapiens, UniProt P00533).
T2 construct: performed to measure phosphorylated EGFR levels using A431 cells (10% FBS); endogenous in cells; host or cells: A431
T2 sequence (P00533 25-1210): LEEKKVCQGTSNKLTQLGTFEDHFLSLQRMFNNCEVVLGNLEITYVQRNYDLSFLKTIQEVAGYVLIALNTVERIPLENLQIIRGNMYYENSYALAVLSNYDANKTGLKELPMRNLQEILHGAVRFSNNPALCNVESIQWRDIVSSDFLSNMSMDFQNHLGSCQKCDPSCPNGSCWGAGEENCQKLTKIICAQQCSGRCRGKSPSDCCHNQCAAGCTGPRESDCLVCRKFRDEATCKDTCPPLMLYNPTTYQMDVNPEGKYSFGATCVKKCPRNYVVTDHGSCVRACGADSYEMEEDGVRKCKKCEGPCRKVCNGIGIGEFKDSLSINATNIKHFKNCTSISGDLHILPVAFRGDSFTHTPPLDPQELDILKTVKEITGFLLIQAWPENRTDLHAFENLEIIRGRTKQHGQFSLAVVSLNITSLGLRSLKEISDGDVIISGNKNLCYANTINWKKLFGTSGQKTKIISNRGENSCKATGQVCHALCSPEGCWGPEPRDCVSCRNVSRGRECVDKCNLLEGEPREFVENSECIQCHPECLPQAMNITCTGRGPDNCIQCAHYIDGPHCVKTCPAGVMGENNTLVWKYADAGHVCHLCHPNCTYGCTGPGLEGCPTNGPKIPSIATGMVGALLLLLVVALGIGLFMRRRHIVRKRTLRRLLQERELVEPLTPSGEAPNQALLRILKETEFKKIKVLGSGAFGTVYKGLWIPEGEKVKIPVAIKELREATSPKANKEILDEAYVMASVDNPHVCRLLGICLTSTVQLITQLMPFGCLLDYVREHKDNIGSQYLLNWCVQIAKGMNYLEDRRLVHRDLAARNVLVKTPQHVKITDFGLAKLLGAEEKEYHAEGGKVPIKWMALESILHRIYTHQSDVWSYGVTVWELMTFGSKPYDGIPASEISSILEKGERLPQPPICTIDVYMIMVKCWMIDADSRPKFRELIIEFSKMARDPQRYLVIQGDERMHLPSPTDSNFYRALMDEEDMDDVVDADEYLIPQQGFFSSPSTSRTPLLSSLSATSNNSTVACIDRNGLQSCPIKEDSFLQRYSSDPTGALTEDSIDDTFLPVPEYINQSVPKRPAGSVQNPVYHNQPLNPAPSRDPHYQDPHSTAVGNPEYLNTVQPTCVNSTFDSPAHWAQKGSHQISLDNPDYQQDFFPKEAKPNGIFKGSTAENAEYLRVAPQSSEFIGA
Description: Detection of phosphorylated EGFR (pEGFR) in EGF-stimulated A431 cells. Format: cell-based. The following applies: A431 cells (10% FBS), 4 hours incubation, EGF 30 ng/mL 10 minutes, AlphaLISA. A digest of the protocol: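 AlphaLISA read-out of EGFR phosphorylation after a 10-min EGF pulse (30 ng/mL final). A431 cells (10% FBS) had been exposed to compound for 4 h at 37 °C. IC50 was fitted from % inhibition normalised to DMSO and staurosporine control lysates.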

Ba/F3 ERBB2 A775_G776insYVMA, sequence (P04626 with tags, fused parts or gaps DUP772-775): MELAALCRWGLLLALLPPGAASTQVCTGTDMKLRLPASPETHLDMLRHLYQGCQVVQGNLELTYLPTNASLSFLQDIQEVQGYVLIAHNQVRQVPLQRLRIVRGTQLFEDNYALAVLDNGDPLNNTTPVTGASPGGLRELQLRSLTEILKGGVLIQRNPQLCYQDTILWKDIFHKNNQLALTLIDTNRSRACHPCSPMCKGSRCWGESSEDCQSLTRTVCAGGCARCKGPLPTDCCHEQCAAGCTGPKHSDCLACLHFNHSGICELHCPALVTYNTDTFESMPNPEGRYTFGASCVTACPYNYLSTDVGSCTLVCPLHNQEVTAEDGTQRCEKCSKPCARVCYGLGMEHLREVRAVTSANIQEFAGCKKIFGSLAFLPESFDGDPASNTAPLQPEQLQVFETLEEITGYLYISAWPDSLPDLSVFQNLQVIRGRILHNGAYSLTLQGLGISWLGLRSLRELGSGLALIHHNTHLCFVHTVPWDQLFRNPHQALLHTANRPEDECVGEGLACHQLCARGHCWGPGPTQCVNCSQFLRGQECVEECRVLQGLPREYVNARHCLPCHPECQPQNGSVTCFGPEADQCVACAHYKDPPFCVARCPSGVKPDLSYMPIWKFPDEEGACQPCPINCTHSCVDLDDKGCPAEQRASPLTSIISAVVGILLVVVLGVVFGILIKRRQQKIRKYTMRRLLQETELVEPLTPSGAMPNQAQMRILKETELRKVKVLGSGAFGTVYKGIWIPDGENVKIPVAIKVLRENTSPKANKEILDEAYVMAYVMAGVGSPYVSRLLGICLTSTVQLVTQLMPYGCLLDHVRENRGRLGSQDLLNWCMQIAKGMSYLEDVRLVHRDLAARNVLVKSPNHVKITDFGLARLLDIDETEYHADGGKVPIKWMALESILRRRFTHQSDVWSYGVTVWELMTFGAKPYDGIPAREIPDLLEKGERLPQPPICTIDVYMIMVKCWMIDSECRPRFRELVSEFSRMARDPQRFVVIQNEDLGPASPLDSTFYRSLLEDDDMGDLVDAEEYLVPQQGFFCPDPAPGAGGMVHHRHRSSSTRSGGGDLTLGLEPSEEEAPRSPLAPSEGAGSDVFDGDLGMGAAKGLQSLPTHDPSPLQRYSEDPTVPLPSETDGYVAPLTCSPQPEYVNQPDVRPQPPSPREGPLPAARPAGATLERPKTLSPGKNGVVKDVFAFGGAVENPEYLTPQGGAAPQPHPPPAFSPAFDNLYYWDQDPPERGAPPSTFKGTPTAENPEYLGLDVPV

As a reminder, the IC50 is the concentration that inhibits the measured activity by half. On to `CCc1ccc(Oc2ccc(Nc3ncnc4ccc(N5CC/C(=C\CN(C)C)C5=O)nc34)cc2C)cn1` [Compound 72, (E)-3-(2-(dimethylamino)ethylidene)-1-(4-((4-((6-ethylpyridin-3-yl)oxy)-3-methylphenyl)amino)pyrido[3,2-d]pyrimidin-6-yl)pyrrolidin-2-one], for which the GI50 in test [1] worked out at 5.37 nM. Besides, the IC50 was 44.9 nM in test [2] and 1880 nM in test [3].
On the same counts, the results for `Cc1ccc(Oc2ccc(Nc3ncnc4ccc(N5CC/C(=C\CN(C)C)C5=O)nc34)cc2C)cn1` [Compound 49, (E)-3-(2-(dimethylamino)ethylidene)-1-(4-((3-methyl-4-((6-methylpyridin-3-yl)oxy)phenyl)amino)pyrido[3,2-d]pyrimidin-6-yl)pyrrolidin-2-one] are 0.999 nM, 13.9 nM and 173 nM.
For the compound `C=C1C(=O)N(c2ccc3ncnc(Nc4ccc(Cc5ccn6ncnc6c5)c(C)c4)c3c2)C2CC12` (single isomer, unassigned) [Example S79, Enantiomer #2, 2-(4-((4-([1,2,4]triazolo[1,5-a]pyridin-7-ylmethyl)-3-methylphenyl)amino)quinazolin-6-yl)-4-methylene-2-azabicyclo[3.1.0]hexan-3-one], the GI50 in test [1] is 13.7 nM. Also, the IC50 in test [2] was 15.3 nM; in test [3], 798 nM.
On the same counts, the results for `Cc1cc(Nc2ncnc3ccc(N4C(=O)/C(=C\CN(C)C)C5CC54)nc23)ccc1Oc1ccn2ncnc2c1` (stereo not drawn) [Compound 142, (4Z)-4-[2-(dimethylamino)ethylidene]-2-{4-[(3-methyl-4-{[1,2,4]triazolo[1,5-a]pyridin-7-yloxy}phenyl)amino]pyrido[3,2-d]pyrimidin-6-yl}-2-azabicyclo[3.1.0]hexan-3-one] are 5.8 nM, 15.4 nM and 543 nM.
Consider `Cc1cc(Nc2ncnc3cnc(N4CC/C(=C\CN(C)C)C4=O)cc23)ccc1Oc1ccc2c(c1)nnn2C` [Compound 101, (E)-3-(2-(dimethylamino)ethylidene)-1-(4-((3-methyl-4-((1-methyl-1H-benzo[d][1,2,3]triazol-5-yl)oxy)phenyl)amino)pyrido[3,4-d]pyrimidin-6-yl)pyrrolidin-2-one], for which the GI50 in test [1] came to 4.32 nM. Further, the half-inhibitory concentration (IC50) in test [2] came out at 22.3 nM; in test [3], 1160 nM.
Consider `CC1CN(c2ccc3ncnc(Nc4ccc(Oc5ccn6ncnc6c5)c(F)c4)c3n2)C(=O)/C1=C/CN(C)C` (single isomer, unassigned) [Example S127, Enantiomer #2, (E)-1-(4-((4-([1,2,4]triazolo[1,5-a]pyridin-7-yloxy)-3-fluorophenyl)amino)pyrido[3,2-d]pyrimidin-6-yl)-3-(2-(dimethylamino)ethylidene)-4-methylpyrrolidin-2-one], for which, in test [1], the GI50 was 418 nM. Besides, the half-inhibitory concentration (IC50) in test [2] is 146 nM; in test [3] it was above 10000 nM.
On the same counts, the results for `Cc1cc(Nc2ncnc3cnc(N4CC/C(=C\CN(C)C)C4=O)cc23)ccc1Oc1ccn2nnnc2c1` [Compound 107, (3E)-3-[2-(dimethylamino)ethylidene]-1-{4-[(3-methyl-4-{[1,2,3,4]tetrazolo[1,5-a]pyridin-7-yloxy}phenyl)amino]pyrido[3,4-d]pyrimidin-6-yl}pyrrolidin-2-one] are 81.3 nM, 21.6 nM and above 10000 nM.
For `Cc1cc(Nc2ncnc3cnc(N4CC/C(=C\CN5CCC5)C4=O)cc23)ccc1Oc1ccn2ncnc2c1` [Compound 102, (E)-1-(4-((4-([1,2,4]triazolo[1,5-a]pyridin-7-yloxy)-3-methylphenyl)amino)pyrido[3,4-d]pyrimidin-6-yl)-3-(2-(azetidin-1-yl)ethylidene)pyrrolidin-2-one] the same measures were 7.51 nM, 8.26 nM and 3010 nM.
For the compound `C=C1CCN(c2nc3c(Nc4ccc(Oc5ccc6c(c5)ncn6C)c(C)c4)ncnc3s2)C1=O` [Compound 84, 1-[7-({3-methyl-4-[(1-methyl-1,3-benzodiazol-5-yl)oxy]phenyl}amino)-[1,3]thiazolo[5,4-d]pyrimidin-2-yl]-3-methylidenepyrrolidin-2-one], in test [1], the GI50 came to 45 nM. Besides, the concentration for half-maximal inhibition (IC50) was 425 nM in test [2] and above 10000 nM in test [3].
On the same counts, the results for `CC1CN(c2cc3c(Nc4ccc(Oc5ccc6c(c5)nnn6C)cc4)ncnc3cn2)C(=O)/C1=C/CN(C)C` (single isomer, unassigned) [Compound 136] are 18 nM, 72.6 nM and 1670 nM.
For `CN(C)C/C=C1\CCN(c2cc3c(Nc4ccc(Oc5ccc6c(c5)ncn6C)c(F)c4)ncnc3cn2)C1=O` [Compound 128, (3E)-3-[2-(dimethylamino)ethylidene]-1-[4-({3-fluoro-4-[(1-methyl-1,3-benzodiazol-5-yl)oxy]phenyl}amino)pyrido[3,4-d]pyrimidin-6-yl]pyrrolidin-2-one] the same measures were 7.9 nM, 21.4 nM and above 10000 nM.
On the same counts, the results for `Cc1cc(Nc2ncnc3cnc(N4CC(C)/C(=C\CN(C)C)C4=O)cc23)c(F)cc1Oc1ccc2c(c1)nnn2C` (single isomer, unassigned) [Example S115, Enantiomer #1, (3E)-3-[2-(dimethylamino)ethylidene]-1-[4-({2-fluoro-5-methyl-4-[(1-methyl-1,2,3-benzotriazol-5-yl)oxy]phenyl}amino)pyrido[3,4-d]pyrimidin-6-yl]-4-methylpyrrolidin-2-one] are 11.3 nM, 32 nM and 1000 nM.
As for `C=C1C(=O)N(c2ccc3ncnc(Nc4ccc(Oc5ccn6ncnc6c5)c(C)c4)c3c2)CC1COCCN(C)C` (single isomer, unassigned) [Example S111, Enantiomer #2, 1-(4-(4-([1,2,4]triazolo[1,5-a]pyridin-7-yloxy)-3-methylphenylamino)quinazolin-6-yl)-4-((2-(dimethylamino)ethoxy)methyl)-3-methylenepyrrolidin-2-one], the GI50 in test [1] came to 10.8 nM. In addition, the 50% inhibitory concentration (IC50) in test [2] was determined as 18.2 nM; in test [3], 33.7 nM.
On the same counts, the results for `CN(C)C/C=C1\CCN(c2ccc3ncnc(Nc4ccc(Oc5ccc6c(c5)ncn6C)cc4F)c3n2)C1=O` [Compound 99, (3E)-3-[2-(dimethylamino)ethylidene]-1-[4-({2-fluoro-4-[(1-methyl-1,3-benzodiazol-5-yl)oxy]phenyl}amino)pyrido[3,2-d]pyrimidin-6-yl]pyrrolidin-2-one] are 6.64 nM, 38.8 nM and above 10000 nM.
For `Cc1cc(Nc2ncnc3ccc(N4CC/C(=C\CCN(C)C)C4=O)cc23)ccc1Oc1ccn2ncnc2c1` [Compound 26, (3E)-3-[3-(dimethylamino)propylidene]-1-{4-[(3-methyl-4-{[1,2,4]triazolo[1,5-a]pyridin-7-yloxy}phenyl)amino]quinazolin-6-yl}pyrrolidin-2-one] the same measures were 8.61 nM, 11.7 nM and 1460 nM.
